Test results: US9243036B2, “Anti-microbial activity of synthetic peptides” (THE UNITED STATES OF AMERICA, as represented by the …, priority 2012, dated 2016)
Residues, ends and D or L forms follow the SMILES beside them.

What was measured:
Type in all cases: cell-based
[1] = system: K pneumoniae
Description: In vitro anti-bacterial activity of EC5. The test microorganisms mentioned earlier in the experimental procedures were used to evaluate the bactericidal activity of EC5 peptide. The minimum inhibitory concentrations (MICs) of the peptide were determined by standard dilution assay as recommended by Clinical and Laboratory Standard Institutes (CLSI) guidelines (Azad, M. A., et al., (2011) Antimicrob. Agents Chemother. 55, 2137-2145). Bacteria were grown to mid-logarithmic phase in cation-supplemented Mueller-Hinton broth (MHB) (Becton Dickinson, Sparks, Md.) on an orbital shaker (37° C.) and diluted to a 0.5 McFarland standard to a final volume of 1 ml. Decreasing concentrations of the peptide were incubated with the microorganisms. Results were recorded by visual inspection after 24 h of incubation at 37° C. Assay was repeated three separate times to ensure reproducibility. […] EC5 concentrations 0x, 0.5x, 1x, and 2×MIC were incubated with logarithmic phase of bacteria of approximately 10^5 CFU/ml in an orbital shaker for 48 h at 37° C. Samples were drawn and plated on NA plates. Polymyxin B was used as a positive control and peptide with no anti-bacterial activity from our previous studies was used as a negative control.

[2] = system: P. aeruginosa; test: Outer membrane permeabilization (NPN uptake) assay
Description: (§1) Membrane-permeabilizing activity of the peptide was determined using the fluorescent dye N-phenyl-1-napthylamine (NPN) assay, as described earlier (Loh et al. (1984) Antimicrob. Agents Chemother. 26, 546-551), with intact cells of E. coli and P. aeruginosa. The increase in fluorescence due to partitioning of NPN uptake into outer membrane (OM) was measured by addition of increasing concentrations of peptide. Polymyxin B (PMB) was taken as a positive control due to its outer membrane permeabilizing properties. All experiments were performed three times. S. aureus was used as a negative control.
(§2) Outer membrane permeabilizing activity of EC5 against E. coli and P. aeruginosa was determined using the fluorescent dye N-phenyl-1-napthylamine (NPN) assay. The outer membrane of a bacterial cell is impermeable to NPN under normal conditions. However permeabilization of outer membrane by anti-microbial peptides allows the uptake of NPN thereby leading to increase in fluorescence in the cell. […] The outer membrane permeabilizing activity of EC5 was compared to polymyxin B, a well studied membrane permeabilising agent (Daugelavicius, R., et al., (2000) Antimicrob. Agents Chemother. 44, 2969-2978).

[3] = system: E. coli; test: Outer membrane permeabilization (NPN uptake) assay
Description: as §1, §2

[4] = system: other bacteria tested; test: 2 h incubation of mid-logarithmic cultures with peptide, CFU on NA plates; settings: even at 50 μg/ml
Description: All bacterial strains used in this study originated from ATCC (Manassas, Va.): S. aureus (ATCC 25923; ATCC 35548), S. epidermidis (ATCC 35983), E. coli (ATCC 700928; ATCC 25922), P. aeruginosa (ATCC 27853; ATCC 12121), K pneumoniae (ATCC 10031; ATCC 13885) and B. cereus (ATCC 11778). Cultures were maintained and subcultured periodically on nutrient agar plates and stored at 4 to 8° C. until tested. Stock cultures of all bacteria were stored in tryptic soy broth with 10% glycerol at −70° C. Log-phase cultures of bacteria grown in Miller's Luria-Bertani (LB) broth (Mediatech Inc, Herndon, Va.) were concentrated by centrifugation at 3000×g and dilutions were prepared with phosphate-buffered saline (PBS; pH 7.4) (Mediatech Inc, Herndon, Va.). In all experiments bacterial titers were estimated by optical density and confirmed by quantitative culture by plating on nutrient agar (NA) plates.
Mid-logarithmic phase cultures of bacteria with an inoculum of 10^5 CFU/ml were incubated with peptide concentrations ranging from 0 to 50 μg/ml in a shaker incubator for 2 h following which the samples were plated on NA agar plates and CFU determined.

[5] = system: P. aeruginosa; test: Cytoplasmic membrane depolarization assay (diSC3-5) with parallel CFU plating; settings: EC5 at 8 μg/ml and 16 μg/ml
Description: (§3) Membrane depolarization activity (Δψ) of the peptide was determined with intact E. coli and P. aeruginosa cells and the membrane potential-sensitive fluorescent dye, 3,3′-dipropylthiadicarbocyanine Iodide (diSC (3)5) (Invitrogen, Oregon), according to described methods (Sims, P. J., et al (1974) Biochemistry 13, 3315-3330). Briefly, bacterial cells of mid-logarithmic phase were harvested by centrifugation and washed twice with HEPES buffer (5 mM HEPES, 5 mM glucose, pH 7.6). The cells were suspended in the same buffer to an OD of 0.05. The cell suspension was incubated with […] diSC (3)5 until maximal uptake of the dye. 100 mM KCl was added to equilibrate the cytoplasmic and external potassium ion concentration of peptide, and fluorescence was monitored at an excitation wavelength of 622 nm and an emission wavelength of 670 nm. Polymyxin B was used as a positive control and S. aureus cells were used as negative control. Simultaneously the cells were plated on NA plates and incubated at 37° C. overnight to assess the number of CFU.
(§4) Cytoplasmic depolarization assay(Δψ) was performed using the membrane potential sensitive dye 3,3′-dipropylthiadicarbocyanine iodide (diSC3-5) (Zang, L. et al., (2001) J. Biol. Chem. 276, 35714-35722). This dye can cross the outer membrane of the bacterial cell and become concentrated in the cytoplasmic membrane and thereby it self-quenches its own fluorescence. Upon addition of a membrane-permeabilizing agent the dye is released with consequent increase in the fluorescence. EC5 at 8 μg/ml and 16 μg/ml caused rapid depolarization of the cytoplasmic membrane in both E. coli and P. aeruginosa resulting in the release of diSC3-5 within 5 min (FIG. 9C). […] However Polymyxin B even at its MIC of 0.5 μg/ml caused slow release of diSC3-5 when compared to EC5.

[6] = system: E. coli; test: as above; settings: EC5 at 8 μg/ml and 16 μg/ml
Description: as §3, §4

[7] = system: P. aeruginosa; test: ATP inhibition (BACTITER-GLO); settings: EC5 at lowest concentration of 3.125 μg/ml
Description: (§5) The effects of EC5 on ATP inhibition as a measure of metabolic activity of E. coli and P. aeruginosa cells was determined by using BACTITER-GLO™ assay kit (Promega) according to the manufacturer's protocol. The luminescent signal correlates with the number of viable microbial cells based on the amount of ATP present after the addition of different concentrations of the peptide. Polymyxin B was included as a positive control.
(§6) ATP inhibition as a measurement of microbial viability was measured using BacTiter-Glo kit ([…]). Intracellular ATP levels of E. coli and P. aeruginosa were examined after the addition of different concentrations of EC5 (FIG. 9D). ATP inhibition began 5 min after the addition of EC5 at lowest concentration of 3.125 μg/ml which was slightly lower than the MIC of 8 μg/ml for E. coli and P. aeruginosa.

[8] = system: E. coli; test: ATP inhibition (BACTITER-GLO); settings: EC5 at lowest concentration of 3.125 μg/ml
Description: as §5, §6

[9] = increasing peptide concentrations

Compound: CC[C@H](C)[C@H](NC(=O)[C@H](CCCCN)NC(=O)[C@H](CCCNC(=N)N)NC(=O)[C@H](Cc1ccccc1)NC(=O)[C@H](CC(C)C)NC(=O)[C@H](CC(C)C)NC(=O)[C@@H](N)CCCNC(=N)N)C(=O)N[C@@H](CCCNC(=N)N)C(=O)N[C@@H](CCCNC(=N)N)C(=O)N[C@@H](CC(C)C)C(=O)N[C@@H](CCCCN)C(=O)N[C@@H](CCCNC(=N)N)C(=O)O [EC5, RLLFRKIRRLKR] (H-RLLFRKIRRLKR-OH; N-terminus and C-terminus assumed)
- MIC [1]: 64 to 128 µg/mL
- increase in NPN fluorescence compared with polymyxin B ([2]; at similar concentrations): higher than for polymyxin B
- NPN fluorescence (outer membrane permeabilization) [2, 9]: dose-dependent increase in fluorescence
- increase in NPN fluorescence compared with polymyxin B ([3]; at similar concentrations): higher than for polymyxin B
- NPN fluorescence (outer membrane permeabilization) [3, 9]: dose-dependent increase in fluorescence
- activity against the other bacteria tested [4]: no activity
- time to complete inhibition of CFU [5]: ≤ 5 min
- time to release of diSC3-5 (depolarization of the cytoplasmic membrane) [5]: ≤ 5 min
- time to complete inhibition of CFU [6]: ≤ 5 min
- time to release of diSC3-5 (depolarization of the cytoplasmic membrane) [6]: ≤ 5 min
- time at which ATP inhibition began [7]: 5 min
- time at which ATP inhibition began [8]: 5 min
